Data on one compound can be found in US10945994B2, “Combinations comprising a pyrrolidine-2,5-dione IDO1 inhibitor and an anti-body” (Pfizer Inc., priority 2015, dated 2021).

One test has as its target mouse IDO1 (Mus musculus (Mouse), UniProt P28776). The test is described as follows: IDO1 enzymatic activity by mass spectrometry assay. In kind it is biochemical. As to conditions: MS assay; geometric mean (95% confidence interval); read-out: Enzyme Activity IC50 mouse IDO1. As for the experimental part: (§1) The full length complementary deoxyribonucleic acid (cDNA) for human IDO1 was cloned into a pFastbac-1 based vector and the full length cDNA for mouse and dog was cloned into a pET24a based vector. […] Human IDO1 was expressed in insect cells and purified using Ni affinity column. The mouse and dog IDO1 were expressed in Escherichia coli BL21 (DE3) and purified using a Ni affinity column. To obtain non-tagged, pure, and hemin loaded IDO1, TEV protease treated and tag removed protein was incubated with 10× molar ratio of hemin (dissolved in 25 mM NaOH) to protein at 4° C. overnight followed by size exclusion chromatography (SEC) for human IDO1 and anion exchange and SEC for mouse and dog IDO1.
(§2) The inhibition of human, dog and mouse IDO1 was measured by quantitating tryptophan and the generation of kynurenine by MS. IDO1 enzyme (1 nM) was incubated with various concentrations of the inhibitor ([…] to 1 nM), in duplicate, at room temperature in […] buffer (Mg2+, Ca2+−PBS, 20 mM ascorbic acid, 10 mM methylene blue, 800 nM catalase, […]). […] The HCl stops the enzyme reactions and also converts the N-formyl kynurenine to kynurenine. […] Detection of tryptophan and kynurenine was accomplished following injection of assay reaction (injection loop volume is 10 μL) onto an Agilent Graphite Type D cartridge in 0.01% trifluoroacetic acid (TFA) plus 0.09% formic acid and eluted using 80% acetonitrile, 0.09% formic acid and 0.01% TFA. The finalized RapidFire settings were as follows: aspiration time: 600 ms or until the loop is full per the sip sensor, load time: 5000 ms, elution time: 5000 ms, and re-equilibration time: 500 ms at a flow rate of 1.5 mL/min.

For another test, the target named is dog IDO1 (Canis lupus familiaris, UniProt A0A8I3N1Y1). The test is described as follows: IDO1 enzymatic activity by mass spectrometry assay. In kind it is biochemical. As to conditions: dog enzyme; varied tryptophan and inhibitor concentrations. As for the experimental part:
as §1, §2

A further test has as its target TDO2 (Homo sapiens (Human), UniProt P48775). The test can be described thus: Human TDO2 enzymatic assay. In kind it is biochemical. As for the experimental part: The protocol was adapted from Dolusic et al, 2011. Briefly, the reaction mixture ([…]) contained TRIS buffer (50 mM, pH 7.5), methylene blue (0.125 mM), ascorbic acid (0.25 M), catalase (40 units/mL) and human recombinant TDO2 enzyme (prepared as described in Dolusic et al, 2011; 0.9 mg) with increasing concentrations of compounds (1.0 nM to […]). The reaction was run with single replicate. The reaction was initiated by the addition of the substrate L-tryptophan (1 mM).

Test [1] concerns panel of receptors, ion channels, transporters and enzymes (64 targets in total). The test is described as follows: Cerep Wide Ligand Profile Screen. To be noted: initial concentration of 200 μM. As for the experimental part: Three hits were noted (defined by a response greater that 50% of a maximal response) and follow up curves were performed by Cerep.
The subject of the next test is B16-F10 cells. The test can be described thus: B16-F10 melanoma model, combination with anti-PD-L1 and anti-4-1BB. The format is in vivo, C57BL/6J mice. As to conditions: PF-06840003 600 mg/kg BID, anti-4-1BB 1 mg/kg, anti-PD-L1 10 mg/kg d9, 12, 15, 18. As for the experimental part: B16-F10 cells were obtained from the ATCC and grown following instructions on ATCC's website. 2×10^5 cells were implanted in […] PBS sc in the right flank of female C57BL/6J (Jackson labs) mice. Mice (n=20) were randomized into treatment groups and treatment initiated on day 9 after implant at a mean tumor size of 60 mm3. Antibody treatments were given as i.p. injection on day 9, 12, 15 and 18. anti-PD-L1 antibody (clone 10F.9G2; rat IgG2b) was purchased from BioxCell. anti-4-1BB antibody (MAB9371; rat IgG1—murinized) was purchased from R&D systems. […] All animal experimentation was approved in advance by and executed following Pfizer's IACUC.

A further test relates to 4T1 breast cancer cells. The test is described as follows: In vivo efficacy in 4T1 breast cancer syngeneic model. As to conditions: 100 mg/kg BID oral. Also on record: species or system Balb/c mice. As for the experimental part:
In vivo efficacy studies were performed on 4T1 syngeneic tumor model of Balb/c mice implanted orthotopically in the mammary gland. One hundred thousand 4T1 breast cancer cells (ATCC® CRL-2539™)] were implanted orthotopically within the mammary gland of 7 weeks old Balb/c mice (day 0). Animals were randomized based on tumor size when tumor average reached 60 mm^3 (between day 7 and 11) into different treatment cohorts. The test compound was administered orally twice per day (approximately at 9 am and […]) starting the day of randomization. The test compounds were suspended into Methocel™ cellulose ether vehicle and sonicated before oral administration to animals using gavage needles. Treatment was administered daily until the end of the study. All experimental animals were monitored for body weight changes twice weekly. Tumor volume was measured twice a week by a caliper device and calculated with the following formula: Tumor volume=0.5×(length×width^2). Studies were terminated before tumor volumes reached […]. TGI (% tumor growth inhibition) was determined as […]

Test [2] concerns PancO2 pancreas cancer cells. The test is described as follows: In vivo efficacy in PancO2 pancreatic cancer syngeneic model. On the set-up: species or system C57/Bl6 mice. To be noted: 200 mg/kg BID oral. As for the experimental part: In vivo efficacy studies were performed on PancO2 syngeneic tumor model of C57/Bl6 mice implanted sub-cutaneously. Five millions PancO2 pancreas cancer cells were implanted sub-cutaneously to 7 weeks old C57/Bl6 mice (day 0). Animals were randomized based on tumor size when tumor average reached 60 mm^3 (between day 10 and 12) into different treatment cohorts. The Compound was administered orally twice per day (approximately at 9 am and 5 pm) starting the day of randomization. The test compound shown below in the table was suspended into Methocel® vehicle and sonicated before oral administration to animals using gavage needles. Treatment was administered daily until the end of the study. All experimental animals were monitored for body weight changes weekly. Tumor volume was measured weekly using a caliper device and calculated with the following formula: Tumor volume=0.5×(length×width^2). Studies were terminated before tumor volumes reached […]. TGI (% tumor growth inhibition) was determined as
Treatment was administered daily until the end of the study. Tumor volume was measured weekly using a caliper device and calculated with the following formula: Tumor volume=0.5×(length×width^2). Mice were considered as dead when tumor size reached 400 mm^3. […] SEM refers to standard error of measurement.

The next test relates to CT26 tumors. The test is described as follows: CT26 syngeneic colon tumor model, combination with avelumab. In kind it is in vivo, Balb/c mice. To be noted: Compound 1 200 mg/kg BID, Avelumab 10 mg/kg. The source says: FIGS. 5A-5E show combinatorial anti-tumor effects of an IDO1 inhibitor and an anti-PD-L1 (avelumab) in the sc CT26 syngeneic mouse colon tumor model in Balb/c mice. […] FIGS. 5B-5E show the individual tumor growth curves.
Avelumab is a fully human anti-PD-L1 IgG1 monoclonal antibody, and thus, is not optimized for mouse.

The target of a further test is IDO1 (Homo sapiens (Human), UniProt P14902). The test is described as follows: Human whole blood assay (+ IFNγ/LPS). In kind it is cell-based. To be noted: read-out: unbound IC90, human whole blood.
Sequence of IDO1 (P14902 whole entry): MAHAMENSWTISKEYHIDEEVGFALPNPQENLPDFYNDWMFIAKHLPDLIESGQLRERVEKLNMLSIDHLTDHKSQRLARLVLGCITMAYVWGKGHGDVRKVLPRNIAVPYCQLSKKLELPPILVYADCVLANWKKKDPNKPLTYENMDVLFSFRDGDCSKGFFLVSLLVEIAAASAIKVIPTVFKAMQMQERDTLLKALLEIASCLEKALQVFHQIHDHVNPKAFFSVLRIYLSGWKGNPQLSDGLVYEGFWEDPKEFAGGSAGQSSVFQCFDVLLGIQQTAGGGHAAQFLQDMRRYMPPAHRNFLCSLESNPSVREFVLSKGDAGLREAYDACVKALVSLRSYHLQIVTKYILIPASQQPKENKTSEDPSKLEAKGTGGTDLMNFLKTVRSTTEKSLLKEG

Sequence of TDO2 (P48775 whole entry): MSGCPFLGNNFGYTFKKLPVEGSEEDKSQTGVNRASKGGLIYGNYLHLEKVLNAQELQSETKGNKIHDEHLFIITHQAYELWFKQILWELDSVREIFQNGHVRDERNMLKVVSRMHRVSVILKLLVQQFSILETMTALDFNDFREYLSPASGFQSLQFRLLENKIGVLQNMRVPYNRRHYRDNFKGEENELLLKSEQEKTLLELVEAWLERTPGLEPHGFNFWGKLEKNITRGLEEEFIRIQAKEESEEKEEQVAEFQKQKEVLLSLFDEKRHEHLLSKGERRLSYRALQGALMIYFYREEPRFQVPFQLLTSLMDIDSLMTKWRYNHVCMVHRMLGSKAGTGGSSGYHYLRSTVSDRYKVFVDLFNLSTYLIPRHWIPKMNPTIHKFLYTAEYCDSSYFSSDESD
Sequence of dog IDO1 (A0A8I3N1Y1 1-402): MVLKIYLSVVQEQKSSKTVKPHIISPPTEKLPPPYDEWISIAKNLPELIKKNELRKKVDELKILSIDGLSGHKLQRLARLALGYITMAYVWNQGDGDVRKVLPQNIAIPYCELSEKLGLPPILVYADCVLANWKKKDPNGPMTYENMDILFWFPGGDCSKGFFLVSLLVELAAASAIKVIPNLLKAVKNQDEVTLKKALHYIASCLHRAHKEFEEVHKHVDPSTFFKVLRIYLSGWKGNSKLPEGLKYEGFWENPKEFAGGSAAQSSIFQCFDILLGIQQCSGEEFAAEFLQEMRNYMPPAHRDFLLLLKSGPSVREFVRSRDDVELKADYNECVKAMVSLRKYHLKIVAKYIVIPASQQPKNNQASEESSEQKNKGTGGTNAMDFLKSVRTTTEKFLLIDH
Sequence of mouse IDO1 (P28776 whole entry): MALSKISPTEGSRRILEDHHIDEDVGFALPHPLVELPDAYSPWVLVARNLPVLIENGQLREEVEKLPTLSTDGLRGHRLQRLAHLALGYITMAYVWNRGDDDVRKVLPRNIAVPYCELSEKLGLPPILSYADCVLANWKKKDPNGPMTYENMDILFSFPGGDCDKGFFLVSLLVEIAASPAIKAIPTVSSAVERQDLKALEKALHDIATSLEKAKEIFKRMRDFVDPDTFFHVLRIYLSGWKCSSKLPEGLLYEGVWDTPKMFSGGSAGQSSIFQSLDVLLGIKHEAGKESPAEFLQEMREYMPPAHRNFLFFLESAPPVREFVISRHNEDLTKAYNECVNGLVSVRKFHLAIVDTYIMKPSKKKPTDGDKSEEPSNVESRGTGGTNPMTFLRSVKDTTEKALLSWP

One may read the IC50 as the concentration at which inhibition is half-maximal. Broadly, the IC90 is the concentration needed for an effect of 90%. Consider `O=C1CC(c2c[nH]c3ccc(F)cc23)C(=O)N1` (racemic) [Compound 1, 3-(5-fluoro-1H-indol-3-yl)pyrrolidine-2,5-dione], for which the values for the IC50 on mouse IDO1 and against TDO2 were 1.5 µM and above 50 µM, respectively. Further, the “mechanism of inhibition, preferred model fit” value on dog IDO1 is reported as “noncompetitive inhibition”. Further, the “hits (response greater than 50% of a maximal response) in off target panel” value in test [1] is on record as “Three”. Also, the “% TGI (D17)” value in the test on B16-F10 cells is listed as 32%; in the test with CT26 tumors, 41%. The “% TGI (D20)” value was determined as 49% in the test with B16-F10 cells and 34% with CT26 tumors. The “Mean tumor volume on day 25” value with 4T1 breast cancer cells is recorded as 443.7 mm^3. Besides, the “TGI (Tumor growth inhibition)” value was found to be 43.4% with 4T1 breast cancer cells (day 25) and 26.2% in [2] (day 42). In addition, the “Mean tumor volume on day 42” value in test [2] was 457.0 mm^3. In addition, the “% TGI (D15)” value with CT26 tumors was determined as 38%. Further, at IDO1, the 90% effect concentration (IC90) is 10.7 µM.
